Data set [1] can be described thus: Solubility in biorelevant fasted state simulated intestinal fluid (FaSSIF). The data set is classed as physicochemical. The note with it: 25 °C, fassif, kinetic from dmso stock, Solubility. The procedure: Solubility in Biorelevant Fasted State Simulated Intestinal Fluid (FaSSIF):
A 10 mM DMSO stock solution of compound to be tested is used. A 100 μM standard solution is generated by diluting 2.5 μL of the 10 mM stock solution with 247.5 μL of diluent (10% DMSO/10% MeCN/80% MeOH, v/v/v). A solubility solution is generated by diluting 5 μL of the 10 mM stock solution with 245 μL of FaSSIF (maximum solubility approximately 200 μM). […] The equilibrated solubility solution is filtered by centrifugation (3 minutes at 4000 rpm) using a 0.45 µm filter with a polypropylene membrane. The standard solution and the filtered equilibrated solubility solution are analyzed by HPLC/DAD. The solubility value is calculated by the following equation:
Solubility=(Peak area of sample/Peak area of standard)(Standard concentration)

For data set [2], the target named is T1, recombinant human GST-Syk (Homo sapiens, UniProt P43405).
T1 construct: purchased Carna Biosciences 08-176
Kind of data set: Homogeneous Time-Resolved Fluorescence (HTRF) assay for the recombinant human Syk enzyme. As to conditions: ATP 25 μM. The data set is classed as biochemical. The procedure: Syk inhibition of the compounds of Formula (I) may be determined using the following assay protocol: Homogeneous Time-Resolved Fluorescence (HTRF) Assay for the Recombinant Human Syk Enzyme: A recombinant GST-hSyk fusion protein was used to measure potency of compounds to inhibit human Syk activity. […] Final volume of the reaction was 10 μL. Phosphorylation of the peptide was allowed to proceed for 45' at room temperature. To quench the reaction and detect the phosphorylated product, 2 nM of a Europium-anti-phosphotyrosine antibody (Perkin Elmer #AD0161) and 70 nM SA-APC (Perkin-Elmer #CR130-100) were added together in 15 mM Tris pH 7.5, 40 mM EDTA, 0.01% tween 20. Final volume of the quenching solution was 10 μL. The resulting HTRF signal was measured after 30 minutes on a EnVision (Perkin-Elmer) reader using a time-resolved fluorescence protocol.
(In TR-FRET formats the signal depends on donor and acceptor labels being close together.)

Where [3] appears, read: recombinant human GST-Syk 5 pM, read-out: IC50.

Among the data in patent US20150299125A1, “PRODRUG BIPYRIDYLAMINOPYRIDINES AS SYK INHIBITORS” (MERCK SHARP & DOHME CORP., priority 2012, published 2015) are solubility and IC50 values, retold here.

A word on the solubility: it is the dissolved amount per volume that the medium holds. The term IC50 denotes the concentration that gives 50% inhibition.

Molecules are shown by their SMILES. In brackets after ≈: the same amount, converted by molar mass. Where two headings read alike, the source gives them in different places. A value given as a limit tells only on which side of the number the result lay.

As to `CCCC[N+](CC)(CC)COC(=O)[C@H]1CC[C@H]([C@@](C)(O)c2ccc(-c3cc(C)cc(Nc4cc(C(F)F)ccn4)n3)cn2)CC1` [Example 5-6, N-{[({trans-4-[(1R)-1-(6-{[4-(difluoromethyl)pyridin-2-yl]amino}-4-methyl-2,3′-bipyridin-6′-yl)-1-hydroxyethyl]cyclohexyl}carbonyl)oxy]methyl}-N,N-diethylbutan-1-aminium], in data set [1], the concentration in solution (solubility) was 152 µM. For the same compound, in data set [2] (setting [3]), the IC50 amounted to 1.1 nM.

Take `Cc1cc(Nc2cc(C(F)F)ccn2)nc(-c2ccc([C@](C)(O)[C@H]3CC[C@H](C(=O)O)CC3)nc2)c1` [PrepEx 1-5, trans-4-[(1R)-(6-{[4-(Difluoromethyl)pyridin-2-yl]amino}-4-methyl-2,3′-bipyridin-6′-yl)-1-hydroxyethyl]cyclohexanecarboxylic acid]: the solubility in data set [1] is below 3 µM. In addition, the IC50 in data set [2] (IC50, recombinant human GST-Syk 5 pM) was below 0.5 nM.

Turning to `Cc1cc(Nc2cc(C(F)F)ccn2)nc(-c2ccc([C@](C)(O)[C@H]3CC[C@H](C(=O)OCCC(=O)N(C)C)CC3)nc2)c1` [Example 1-27, 3-(dimethylamino)-3-oxopropyl trans-4-[(1R)-1-(6-{[4-(difluoromethyl)pyridin-2-yl]amino}-4-methyl-2,3′-bipyridin-6′-yl)-1-hydroxyethyl] cyclohexanecarboxylate], in data set [1], the solubility was 50 µM (≈ 29.1 µg/mL). In data set [2] (setting [3]), the IC50 came out at 1.8 nM.

In data set [1], `Cc1cc(Nc2cc(C(F)F)ccn2)nc(-c2ccc([C@](C)(O)[C@H]3CC[C@H](C(=O)OCOC(=O)[C@@H](O)Cc4ccc(O)cc4)CC3)nc2)c1` [Example 3-6, {[(2S)-2-hydroxy-3-(4-hydroxyphenyl)propanoyl]oxy}methyl trans-4-[(1R)-1-(6-{[4-(difluoromethyl)pyridin-2-yl]amino}-4-methyl-2,3′-bipyridin-6′-yl)-1-hydroxyethyl]cyclohexane carboxylate] gave a solubility of 89 µM (≈ 60.2 µg/mL). The IC50 in data set [2] (setting [3]) was found to be 4.1 nM.

In turn, `Cc1cc(Nc2cc(C(F)F)ccn2)nc(-c2ccc([C@](C)(O)[C@H]3CC[C@H](C(=O)OC[N+](C)(C)Cc4ccccc4)CC3)nc2)c1` [Example 5-20, N-benzyl[({trans-4-[(1R)-1-(6-{[4-(difluoromethyl)pyridin-2-yl]amino}-4-methyl-2,3′-bipyridin-6′-yl)-1-hydroxyethyl]cyclohexyl}carbonyl)oxy]-N,N-dimethylmethanaminium] returned a solubility in data set [1] of 86 µM. For the same compound, in data set [2] (setting [3]), the IC50 came out at 0.8 nM.

Turning to `Cc1cc(Nc2cc(C(F)F)ccn2)nc(-c2ccc([C@](C)(O)[C@H]3CC[C@H](C(=O)OCCCCCCN(C)C)CC3)nc2)c1` [Example 1-25, 6-(dimethylamino)hexyl trans-4-[(1R)-1-(6-{[4-(difluoromethyl)pyridin-2-yl]amino}-4-methyl-2,3′-bipyridin-6′-yl)-1-hydroxyethyl] cyclohexanecarboxylate], the solubility in data set [1] is 73 µM (≈ 44.5 µg/mL). Further, the IC50 in data set [2] (setting [3]) was below 0.5 nM.

In data set [1], `Cc1cc(Nc2cc(C(F)F)ccn2)nc(-c2ccc([C@](C)(O)[C@H]3CC[C@H](C(=O)OC[C@H](O)CO)CC3)nc2)c1` [Example 1-16, (2R)-2,3-dihydroxypropyl trans-4-[(1R)-1-(6-{[4-(difluoromethyl)pyridin-2-yl]amino}-4-methyl-2,3′-bipyridin-6′-yl)-1-hydroxyethyl] cyclohexanecarboxylate] came in with a solubility of 165 µM (≈ 91.8 µg/mL). Further, the IC50 in data set [2] (setting [3]) was determined as 2.3 nM.

The compound `Cc1cc(Nc2cc(C(F)F)ccn2)nc(-c2ccc([C@](C)(O)[C@H]3CC[C@H](C(=O)OC[N+]4(C)CCC(O)CC4)CC3)nc2)c1` (stereo partly drawn) [Example 5-27, 1-{[({trans-4-[(1R)-1-(6-{[4-(difluoromethyl)pyridin-2-yl]amino}-4-methyl-2,3′-bipyridin-6′-yl)-1-hydroxyethyl]cyclohexyl}carbonyl)oxy]methyl}-4-hydroxy-1-methylpiperidinium] had a solubility in data set [1] of 164 µM. Further, the IC50 in data set [2] (setting [3]) came to 1.5 nM.

Compound `Cc1cc(Nc2cc(C(F)F)ccn2)nc(-c2ccc([C@](C)(O)[C@H]3CC[C@H](C(=O)OCn4ccnc4)CC3)nc2)c1` [Example 6-4, 1H-imidazol-1-ylmethyl trans-4-[(1R)-1-(6-{[4-(difluoromethyl)pyridin-2-yl]amino}-4-methyl-2,3′-bipyridin-6′-yl)-1-hydroxyethyl]cyclohexanecarboxylate] came in with a solubility in data set [1] of 156 µM (≈ 87.8 µg/mL).

In data set [1], `CC[N+](CC)(CCCC(C)O)COC(=O)[C@H]1CC[C@H]([C@@](C)(O)c2ccc(-c3cc(C)cc(Nc4cc(C(F)F)ccn4)n3)cn2)CC1` (stereo partly drawn) [Example 5-7, N-{[({trans-4-[(1R)-1-(6-{[4-(difluoromethyl)pyridin-2-yl]amino}-4-methyl-2,3′-bipyridin-6′-yl)-1-hydroxyethyl]cyclohexyl}carbonyl)oxy]methyl}-N,N-diethyl-4-hydroxypentan-1-aminium] yielded a solubility of 200 µM. Besides, the IC50 in data set [2] (setting [3]) stood at 1.3 nM.

`Cc1cc(Nc2cc(C(F)F)ccn2)nc(-c2ccc([C@](C)(O)[C@H]3CC[C@H](C(=O)OC[N+]4(C)CCC(CO)CC4)CC3)nc2)c1` (stereo partly drawn) [Example 5-29, 1-{[({trans-4-[(1R)-1-(6-{[4-(difluoromethyl)pyridin-2-yl]amino}-4-methyl-2,3′-bipyridin-6′-yl)-1-hydroxyethyl]cyclohexyl}carbonyl)oxy]methyl}-4-(hydroxymethyl)-1-methylpiperidinium] returned a solubility in data set [1] of 176 µM. Moreover, the IC50 in data set [2] (setting [3]) was below 0.5 nM.

For the compound `Cc1cc(Nc2cc(C(F)F)ccn2)nc(-c2ccc([C@](C)(O)[C@H]3CC[C@H](C(=O)OCc4nccn4C)CC3)nc2)c1` [Example 1-11, (1-methyl-1H-imidazol-2-yl)methyl trans-4-[(1R)-1-(6-{[4-(difluoromethyl)pyridin-2-yl]amino}-4-methyl-2,3′-bipyridin-6′-yl)-1-hydroxyethyl] cyclohexanecarboxylate], in data set [1], the concentration in solution (solubility) came to 57 µM (≈ 32.9 µg/mL). For the same compound, the concentration for half-maximal inhibition (IC50) in data set [2] (setting [3]) stood at 2.1 nM.

`Cc1cc(Nc2cc(C(F)F)ccn2)nc(-c2ccc([C@](C)(O)[C@H]3CC[C@H](C(=O)OC[C@@H]4COC(C)(C)O4)CC3)nc2)c1` [Example 1-15, [(4S)-2,2-dimethyl-1,3-dioxolan-4-yl]methyl trans 4-[(1R)-1-(6-{[4-(difluoromethyl)pyridin-2-yl]amino}-4-methyl-2,3′-bipyridin-6′-yl)-1-hydroxyethyl] cyclohexanecarboxylate] displayed a solubility in data set [1] of 126 µM (≈ 75.2 µg/mL). Further, in data set [2] (setting [3]), the IC50 turned out to be 18.5 nM.

`Cc1cc(Nc2cc(C(F)F)ccn2)nc(-c2ccc([C@](C)(O)[C@H]3CC[C@H](C(=O)OC[N+](C)(C)C(C)C)CC3)nc2)c1` [Example 5-2, N-{[({trans-4-[(1R)-1-(6-{[4-(difluoromethyl)pyridin-2-yl]amino}-4-methyl-2,3′-bipyridin-6′-yl)-1-hydroxyethyl]cyclohexyl}carbonyl)oxy]methyl}-N,N-dimethylpropan-2-aminium] yielded a solubility in data set [1] of 97 µM. Moreover, in data set [2] (setting [3]), the IC50 is 0.8 nM.

Take `Cc1cc(Nc2cc(C(F)F)ccn2)nc(-c2ccc([C@](C)(O)[C@H]3CC[C@H](C(=O)OC[N+](C)(C)CCN(C)C)CC3)nc2)c1` [Example 5-5, N-{[({trans-4-[(1R)-1-(6-{[4-(difluoromethyl)pyridin-2-yl]amino}-4-methyl-2,3′-bipyridin-6′-yl)-1-hydroxyethyl]cyclohexyl}carbonyl)oxy]methyl}-2-(dimethylamino)-N,N-dimethylethanaminium]: the solubility in data set [1] was 53 µM. The IC50 in data set [2] (setting [3]) was found to be 1.3 nM.

Regarding `CCC[N+](CCC)(CCC)COC(=O)[C@H]1CC[C@H]([C@@](C)(O)c2ccc(-c3cc(C)cc(Nc4cc(C(F)F)ccn4)n3)cn2)CC1` [Example 5-9, N-{[({trans-4-[(1R)-1-(6-{[4-(difluoromethyl)pyridin-2-yl]amino}-4-methyl-2,3′-bipyridin-6′-yl)-1-hydroxyethyl]cyclohexyl}carbonyl)oxy]methyl}-N,N-dipropylpropan-1-aminium], the concentration in solution in data set [1] (solubility) came to 137 µM. The IC50 in data set [2] (setting [3]) was determined as 1 nM.

In turn, `Cc1cc(Nc2cc(C(F)F)ccn2)nc(-c2ccc([C@](C)(O)[C@H]3CC[C@H](C(=O)OCOC(=O)OCC[S+](C)[O-])CC3)nc2)c1` (single isomer, unassigned) [Example 7-6] had a solubility in data set [1] of 156 µM (≈ 101 µg/mL). Moreover, the concentration for half-maximal inhibition (IC50) in data set [2] (setting [3]) was determined as 1 nM.

`Cc1cc(Nc2cc(C(F)F)ccn2)nc(-c2ccc([C@](C)(O)[C@H]3CC[C@H](C(=O)OCCCN(C)C)CC3)nc2)c1` [Example 1-13, 3-(dimethylamino)propyl trans-4-[(1R)-1-(6-{[4-(difluoromethyl)pyridin-2-yl]amino}-4-methyl-2,3′-bipyridin-6′-yl)-1-hydroxyethyl] cyclohexanecarboxylate] had a solubility in data set [1] of 140 µM (≈ 79.5 µg/mL). Further, the IC50 in data set [2] (setting [3]) stood at 4.4 nM.
